Assay results as given in patent US8653048B2 (Sanlugen Pharmatech Ltd., priority 2009, dated 2014).
pIC50: −log10 of the molar value.

Columns and labels:
[1] = system: NCI-H460: a human lung cancer cell line; assay: MTT analytical method, NCI-H460 cells; format: cell-based; settings: 72 h
From the text: (§1) MTT analytical method was used to test the prodrugs for various tumor cells.
(§2) • 1) Cell lines: NCI-H460, A549, LOVO, HT-29, MDA-MB-231, SGC7901, HepG2 or BEL-7402 cell lines. Culture: adherent culturing in D-MEM (Hyclone, Inc.) containing 10% fetal calf serum. The initial cell concentration was about 3×10^5 /mL. The cell was passaged by 1:3 dilution in every 2-3 days. On the day before the test, the cell was passaged by 1:2 dilution, the cell concentration for the test was 5-10×10^5 /mL. • 2) Dissolution and dilution of compounds: according to the weight and molecular weight of the drugs provided, 100-200 μL of DMSO was added. Then normal saline was added to make the final diluted concentration of the drugs be 5 mM (Note that the final concentration of DMSO should not be more than 10%). • 3) D-MEM or RPMI 1640 cell culture medium, Gibco, Inc. • 4) Fetal calf serum Hyclone, Inc. • 5) Cell dissociation buffer, 0.25% Trypsin+0.02% EDTA. • 6) MTT solution, MTT Powder (Sigma) were dissolved in PBS buffer solution to make a solution of 5 mg/mL. The solution was filtered by a 0.22 μm micropore membrane and stored at −20° C. • 7) PBS buffer solution. • 8) 10% acidified SDS, 0.01N HCl. • 9) Centrifuge tubes, haustorial tubes etc. (BD, Inc.); 96-well plates (Costatr, Inc.) Procedures: • 1) Cell inoculation: Cells grown for 24 hours after passage, which cells were in good growth state, were used. The cells were harvested by the routine method. The cell concentration was adjust with a fresh culture solution to 2×10^5/mL (for adherent cells)-3×10^5/mL (for suspension cells). The adherent cells were inoculated at 100 μL/well and then cultivated in an incubator with 5% CO2 at 37° C. for 24 h. Thereafter the used culture solution was removed and 95 μL/well of fresh culture solution was added. The suspension cells were inoculated at 95 μL/well directly. • 2) Drugs treatment: 9 concentration grades were designed for every drug, and every concentration had 3 wells. The control group had 5 wells. The control group was tested simultaneously in each test. The final concentrations of a drug added were […], and 5 μL normal saline was added to the control group. • 3) Cell culture and detection: the cells were cultured in an incubator with 5% CO2 at 37° C. for 72 h after the drug was added, then 10 μL MTT was added to each well and the culture was continued for 4 h. 100 μL of 10% SDS (containing 0.01N HCl) was added to each well. After 24 h, the absorbance (A) of each well was determined by Bio-rad 680 ELISA with the detection wavelength of 570 nm and the reference wavelength of 630 nm. Calculation:
(§3) First, the absorbance (A) of each well was averaged (removing any data with big difference). […] A0 was the mean absorbance of the control wells. The effect curve of the drug concentration was drawn using EXCEL software and the drug concentration for 50% cell survival was calculated according to an appropriate computing methods.

[2] = system: HepG2: a human liver cancer cell line; assay: MTT analytical method, HepG2 cells; format: cell-based; settings: 72 h
From the text: as §1, §2, §3

[3] = system: LOVO: a human colon cancer cell line; assay: MTT analytical method, LOVO cells; format: cell-based; settings: 72 h
From the text: as §1, §2, §3

[4] = system: HT29: a human colon cancer cell line; assay: MTT analytical method, HT29 cells; format: cell-based; settings: HT-29, 72 h
From the text: as §1, §2, §3

[5] = system: SGC7901: a human gastric cancer line; assay: MTT analytical method, SGC7901 cells; format: cell-based; settings: SGC-7901, 72 h
From the text: as §1, §2, §3

[6] = system: MDA-MB-231: a human breast cancer line; assay: MTT analytical method, MDA-MB-231 cells; format: cell-based; settings: MDA-MB-231, MTT, 72 h
From the text: as §1, §2, §3

[7] = system: Bel7402: a human liver cancer cell line; assay: MTT analytical method, Bel7402 cells; format: cell-based; settings: Bel-7402, 72 h
From the text: as §1, §2, §3

[8] = system: A549: a human lung cancer cell line; assay: MTT analytical method, A549 cells; format: cell-based; settings: 72 h
From the text: as §1, §2, §3

[9] = system: Hepatocellular Carcinoma; settings: patients, liver cancer treatment; cited from earlier work

pIC50 [1] | pIC50 [2] | pIC50 [3] | pIC50 [4] | pIC50 [5] | pIC50 [6] | pIC50 [7] | pIC50 [8] | Structure (SMILES) | fatal rate of complication [9] [%]
> 5.70 | 5.40 | 6.00 | 4.52 | < 4.80 | < 4.80 | 4.80 | – | CCCCCCCCCCCOC(=O)c1nccnc1C(=O)Nc1ccn([C@@H]2O[C@H](CO)[C@@H](O)C2(F)F)c(=O)n1 [Compound 5, Undecyl-3-((1-((2R,4R,5R)-3,3-difluoro-4-hydroxy-5-(hydroxymethyl)-tetrahydrofuran-2-yl)-2-oxo-1,2-dihydropyrimidin-4-yl)carbamoyl)pyrazine-2-carboxylate] | –
> 5.70 | 5.15 | 4.85 | 5.22 | < 4.80 | < 4.80 | 4.64 | 5.40 | CCCCCCCCCCCCOC(=O)c1ccc(C(=O)Nc2ccn([C@@H]3O[C@H](CO)[C@@H](O)C3(F)F)c(=O)n2)nc1 [Compound 8, Dodecyl-6-((1-((2R,4R,5R)-3,3-difluoro-4-hydroxy-5-(hydroxymethyl)-tetrahydrofuran-2-yl)-2-oxo-1,2-dihydropyrimidin-4-yl)carbamoyl)nicotinate] | –
> 5.70 | 5.22 | 5.30 | 5.52 | < 4.80 | < 4.80 | 4.89 | 5.40 | CCCCCCCCCCCCOC(=O)c1ccc(C(=O)Nc2ccn([C@@H]3O[C@H](CO)[C@@H](O)C3(F)F)c(=O)n2)cn1 [Compound 9, Dodecyl-5-((1-((2R,4R,5R)-3,3-difluoro-4-hydroxy-5-(hydroxymethyl)-tetrahydrofuran-2-yl)-2-oxo-1,2-dihydropyrimidin-4-yl)carbamoyl)picolinate] | –
> 6.00 | 5.40 | 4.80 | > 5.70 | < 4.80 | 4.96 | 5.40 | 5.52 | CCCCCCCCCCCOC(=O)c1ncccc1C(=O)Nc1ccn([C@@H]2O[C@H](CO)[C@@H](O)C2(F)F)c(=O)n1 [Compound 15, Undecyl-3-((1-((2R,4R,5R)-3,3-difluoro-4-hydroxy-5-(hydroxymethyl)-tetrahydrofuran-2-yl)-2-oxo-1,2-dihydropyrimidin-4-yl)carbamoyl)picolinate] | –
– | – | – | 4.52 | – | – | 4.80 | 5.10 | CCCCCCCCCCCOC(=O)c1ccncc1C(=O)Nc1ccn([C@@H]2O[C@H](CO)[C@@H](O)C2(F)F)c(=O)n1 [Compound 22, Undecyl-3-((1-((2R,4R,5R)-3,3-difluoro-4-hydroxy-5-(hydroxymethyl)-tetrahydrofuran-2-yl)-2-oxo-1,2-dihydropyrimidin-4-yl)carbamoyl)isonicotinate] | –
– | – | – | 5.10 | – | – | 4.80 | 5.10 | CCCCCCCCCCCCOC(=O)c1ccncc1C(=O)Nc1ccn([C@@H]2O[C@H](CO)[C@@H](O)C2(F)F)c(=O)n1 [Compound 24, Dodecyl-3-((1-((2R,4R,5R)-3,3-difluoro-4-hydroxy-5-(hydroxymethyl)-tetrahydrofuran-2-yl)-2-oxo-1,2-dihydropyrimidin-4-yl)carbamoyl)isonicotinate] | –
> 6.00 | 5.70 | 4.80 | 5.70 | < 4.80 | 5.22 | 5.10 | 5.52 | CCCCCCCCCCCCOC(=O)c1ccnc(C(=O)Nc2ccn([C@@H]3O[C@H](CO)[C@@H](O)C3(F)F)c(=O)n2)c1 [Compound 26, Dodecyl-2-((1-((2R,4R,5R)-3,3-difluoro-4-hydroxy-5-(hydroxymethyl)-tetrahydrofuran-2-yl)-2-oxo-1,2-dihydropyrimidin-4-yl)carbamoyl)isonicotinate] | –
> 6.00 | 6.00 | 5.70 | > 5.70 | < 4.80 | > 6.00 | 5.40 | 5.40 | CCCCCCCCCCCCOC(=O)c1cc(C(=O)Nc2ccn([C@@H]3O[C@H](CO)[C@@H](O)C3(F)F)c(=O)n2)ccn1 [Compound 27, Dodecyl-4-((1-((2R,4R,5R)-3,3-difluoro-4-hydroxy-5-(hydroxymethyl)-tetrahydrofuran-2-yl)-2-oxo-1,2-dihydropyrimidin-4-yl)carbamoyl)picolinate] | –
– | – | – | 5.70 | – | – | 5.10 | 5.10 | CCCCCCCCCCCOC(=O)c1ccnc(C(=O)Nc2ccn([C@@H]3O[C@H](CO)[C@@H](O)C3(F)F)c(=O)n2)c1 [Compound 28, Undecyl-2-((1-((2R,4R,5R)-3,3-difluoro-4-hydroxy-5-(hydroxymethyl)-tetrahydrofuran-2-yl)-2-oxo-1,2-dihydropyrimidin-4-yl)carbamoyl)isonicotinate] | –
– | – | – | > 5.70 | – | – | 5.10 | 5.52 | CCCCCCCCCCCOC(=O)c1cc(C(=O)Nc2ccn([C@@H]3O[C@H](CO)[C@@H](O)C3(F)F)c(=O)n2)ccn1 [Compound 29, Undecyl-4-((1-((2R,4R,5R)-3,3-difluoro-4-hydroxy-5-(hydroxymethyl)-tetrahydrofuran-2-yl)-2-oxo-1,2-dihydropyrimidin-4-yl)carbamoyl)picolinate] | –
– | – | – | 5.40 | – | – | 4.80 | 4.85 | CCCCCCCCCCCOC(=O)c1cc(C(=O)Nc2ccn([C@@H]3O[C@H](CO)[C@@H](O)C3(F)F)c(=O)n2)[nH]n1 [Compound 30, Undecyl-5-((1-((2R,4R,5R)-3,3-difluoro-4-hydroxy-5-(hydroxymethyl)-tetrahydrofuran-2-yl)-2-oxo-1,2-dihydropyrimidin-4-yl)carbamoyl)-1H-pyrazole-3-carboxylate] | –
– | – | – | 5.15 | – | – | 4.52 | 4.68 | CCCCCCCCCCCCOC(=O)c1cc(C(=O)Nc2ccn([C@@H]3O[C@H](CO)[C@@H](O)C3(F)F)c(=O)n2)[nH]n1 [Compound 31, Dodecyl-5-((1-((2R,4R,5R)-3,3-difluoro-4-hydroxy-5-(hydroxymethyl)-tetrahydrofuran-2-yl)-2-oxo-1,2-dihydropyrimidin-4-yl)carbamoyl)-1H-pyrazole-3-carboxylate] | –
– | – | – | – | – | – | – | – | COc1cccc2c1C(=O)c1c(O)c3c(c(O)c1C2=O)C[C@@](O)(C(=O)CO)C[C@@H]3O[C@H]1C[C@H](N)[C@H](O)[C@H](C)O1 [Doxorubicin] | ~25
